Measurements: patent publication US8481042B2, “Conjugates of pyrrolo[1,4]benzodiazepine dimers as anticancer agents” (priority 2009, dated 2013)

Legend:
Assay type in all cases: cell-based
MDA-A1 cells = test: Inhibition of the proliferation of MDA-A1 cells by compounds of formula IA (14C-thymidine pulse at 96 h); conditions: MDA-A1, 3 days culture, 14C-thymidine incorporation at 96 h
Description: (§1) Evaluation of the Inhibition of the Proliferation of the MDA-MB-231, MDA-A1 and HCT116 Cell Lines by the Compounds of Formula IA with ZbRb=−OMe and Y═Y′=−OMe
(§2) The MDA-MB-231, MDA-A1 or HCT116 cells in their exponential growth phase are trypsinized and resuspended in their respective culture medium (DMEM/F12 Gibco #21331, 10% FCS Gibco #10500-056, […] Gibco #25030 for the MDA cells; DMEM Gibco #11960, 10% FCS Gibco #10500-056, 2 mM glutamine Gibco #25030 for the HCT116 cells). The cell suspension is seeded in Cytostar 96-well culture plates (GE Healthcare Europe, #RPNQ0163) in the complete culture medium containing serum at a density of 5000 cells/well (MDA-MB-231, MDA-A1, HCT116). After incubation for 4 hours, successive dilutions of the tomaymycin dimers are added to the wells in triplicate for each concentration. The cells are cultured for 3 days at 37° C. under an atmosphere containing 5% CO2 in the presence of the cytotoxic agents. On the 4th day, 10 μl of a ^14C-thymidine solution (0.1 μCi/well, Perkin Elmer #NEC56825000) are added to each well. The incorporation of ^14C-thymidine is measured 96 hours after the start of the experiment using a MicroBeta radioactivity counter (Perkin Elmer). The data are expressed in the form of a % of survival by determining the ratio between the count obtained with the cells treated with the cytotoxic agent and the count obtained with the cells of the control wells (treated with the culture medium alone).

HCT116 cells = test: Inhibition of the proliferation of HCT116 cells by compounds of formula IA (14C-thymidine pulse at 96 h); conditions: Homo sapiens, HCT-116; HCT116, 3 days culture, 14C-thymidine incorporation at 96 h
Description: as §1, §2

MDA-MB-231 cells = test: Inhibition of the proliferation of MDA-MB-231 cells by compounds of formula IA (14C-thymidine pulse at 96 h); conditions: Homo sapiens; MDA-MB-231, 3 days culture, 14C-thymidine incorporation at 96 h; read-out: Inhibition of the proliferation (14C-thymidine pulse at 96 h) IC50 MDA-MB231
Description: as §1, §2

C/C=C1\C[C@H]2C=Nc3cc(OCc4cc(OCCN(C)CC(C)(C)SCC(=O)NCCOCCOCCOCCOCCC(=O)OC)cc(COc5cc6c(cc5OC)C(=O)N5C/C(=C/C)C[C@H]5C=N6)n4)c(OC)cc3C(=O)N2C1 showed an IC50 (MDA-A1 cells) of 1.99 nM, an IC50 (HCT116 cells) of 0.03 nM and an IC50 (MDA-MB-231 cells) of 0.009 nM.

In the case of C/C=C1\C[C@H]2C=Nc3cc(OCc4cc(OCCN5CCN(C(=O)CCC(C)(C)SCC(=O)NCCOCCOCCOCCOC(=O)OC)CC5)cc(COc5cc6c(cc5OC)C(=O)N5C/C(=C/C)C[C@H]5C=N6)n4)c(OC)cc3C(=O)N2C1, the IC50 (MDA-A1 cells) is reported as over 10 nM, the IC50 (HCT116 cells) is reported as 1.25 nM and the IC50 (MDA-MB-231 cells) is reported as 0.45 nM.

For C/C=C1\C[C@H]2C=Nc3cc(OCc4cc(COc5cc6c(cc5OC)C(=O)N5C/C(=C/C)C[C@H]5C=N6)cc(C(C)(C)SCC(=O)NCCOCCOCCOCCOCCC(=O)OC)c4)c(OC)cc3C(=O)N2C1, the IC50 (MDA-A1 cells) was over 10 nM, the IC50 (HCT116 cells) was 0.127 nM and the IC50 (MDA-MB-231 cells) was 0.084 nM.

C/C=C1\C[C@H]2C=Nc3cc(OCc4cc(OCCN(C)CC(C)(C)SCC(=O)N(C)CCOCCOCCOCCOCCC(=O)OC)cc(COc5cc6c(cc5OC)C(=O)N5C/C(=C/C)C[C@H]5C=N6)n4)c(OC)cc3C(=O)N2C1 was tested, and the IC50 (MDA-A1 cells) was 2.26 nM, the IC50 (HCT116 cells) was 0.12 nM and the IC50 (MDA-MB-231 cells) was 0.07 nM.
